# In US10583109B2, “Use of silver(I) complexes as anticancer agents” (University of Johannesburg, priority 2012, dated 2020):
# Legend:
# [1] = system: SNO-oesophageal cancer cells; format: cell-based; conditions: 100 μM, 24 hour treatment
# Method: The SNO-oesophageal cancer cells were cultured in Dulbecco's modified Eagles medium (DMEM) containing 10% Foetal bovine serum (FBS), 0.8% Penicillin/Streptomycin/Fungizone and 0.2% Gentamycin. The SNO-oesophageal cancer cells were subcultured every 48 hours and incubated at 37° C. under a 5% CO2 humidified atmosphere. After 48 hours the cells were trypsinized and plated (6×10^5 cells) in 3.5 cm culture dishes and left to cultivate for 24 hours.
# MCF-7 breast cancer cells, in terms of a first study, and SNO-oesophageal cancer cells, in terms of a second study, were treated with 10 μM silverthiocyanide complexes (1)-(5), as well as their ligands (Ligand-1 to Ligand-5) over a 24 hour incubation period. These complexes were dissolved in 0.1% Dimethyl sulfoxide (DMSO). The DMSO alone (vehicle control) decreased the viability with approximately 2.2%, signifying its minimal influence in cancer cell growth. For comparative purposes, 100 μM Cisplatin (CDDP) and 25% H2O2 was included which respectively serves as the apoptotic and necrotic controls. Cisplatin was prepared in 0.9% NaCl, whereas H2O2 was prepared in the supplemented DMEM media right before treatment. An untreated negative control (UT) was exposed to similar conditions as the treated cells and monitored during the experimental study.
# An AlamarBlue® Viability® (Serotec, UK) assay was performed after a 24 hour treatment with complexes (1)-(5) and their ligands (Ligand-1 to Ligand-5, respectively) to evaluate the cellular effect the instant complexes (and their ligands) may have on the cancer cells. AlamarBlue® dye (10%) was incubated with trypsinized cells over a 2 hour period before the fluorescence was measured with a Synergy HT Multi-Detection Microplate reader (BioTek, Winooski, Vt.) at wavelengths of 530 nm and (excitation) and 590 nm (emission). This fluorescent based assay in particular involves the metabolic oxidation-reduction reaction of resazurin to a reduced resorufin product that is directly proportional to the amount of viable cells.
# The percentage cellular viability of differentially treated SNO-oesophageal cells was determined using an AlamarBlue® assay, as depicted in FIG. 7. Different controls (grey) were included: untreated, 0.1% DMSO solvent and apoptotic control (100 μM Cisplatin) as well as the corresponding ligands (10 μM) of complexes (1)-(5). Cells were treated with silver(I) thiocyanate phosphine complexes (1)-(5) at a concentration of 10 μM. The percentages were calculated with respect to the control and error bars were constructed on the basis of Standard Error of the Mean (SEM) where n=9 except for the ligand of compound 4 (n=8). The P-values (*P<0.001 and **P<0.0001) were determined with the Student's T-test to evaluate the significant difference.
# The cells were thereafter treated with complexes (6)-(9) at a concentration of 10 μM prepared in 0.1% DMSO. Treatment with either 25% H2O2 or 100 μM CDDP served as controls for necrosis and apoptosis respectively. The CDDP was prepared in 0.9% NaCl while the H2O2 was diluted with supplemented DMEM prior to treatment.
# A suspension (100 μl) of the differentially treated cells was added in triplicate to a microtiter plate. In the dark, AlamarBlue® dye (10 μl) was added to each well containing a sample, followed by a 2 hour incubation in a 5% CO2 incubator at 37° C. The fluorescence was read on a Synergy HT Multi-Detection Microplate reader at a wavelength of 530 nm and (excitation) and 590 nm (emission). In terms of this study, the apoptotic control CDDP (100 μM) was included. Error bars represent the standard error of the mean (SEM) where n=9. The Student's T-test was used to determine the significant difference of the treatments with respect to DMSO (P*<0.05 and P**<0.001). The silver(I) nitrate phosphine complexes under evaluation decreased the cancer cell viability to a large extent compared to DMSO except complex (9).
# SNO-oesophageal cancer cells were a gift from the University of Pretoria, RSA. […]
# Caspase-3/7 = assay: Caspase-Glo 3/7 assay in SNO-oesophageal cancer cells; format: cell-based; conditions: 100 μM, 24 hours treatment
# Method: The Caspase-Glo®3/7 assay was used to confirm that the structural changes observed are due to apoptotic cell death. In this luminescent based assay, a 1:1 ratio of the Caspase-Glo® reagent was added to treated cells into a microtiter plate. The plate was gently agitated for 30 seconds and incubated for 30 minutes at room temperature. The whole luminescent intensity was measured using a Synergy HT Multi-Detection Microplate reader, where the intensity of the luminescence is proportional to the Caspase-3/7 concentration.
# The error bars where constructed based on the standard error of the mean (SEM) where n=6. The significant difference were calculated with respect to the vehicle control (P<**0.001). A relative increase in expression was observed throughout.
# [2] = system: A375 malignant melanoma cancer cells; assay: Celltitre-Glo Luminescent Cell Viability Assay (ATP) in A375 cells; format: cell-based, human; conditions: 10 µM
# Method: (§1) For purposes of the Celltitre-Glo™ Luminescent Cell Viability [Promega, USA] assay, a 1:1 mixture of cell sample to Celltitre-Glo™ substrate/buffer mix reagent, in duplicate, was added to 96-well black plate, shaken for 30 seconds at room temperature and then further incubated for 30 minutes. Whole luminescence was then measured with a Synergy HT Multi-Detection Microplate Reader. The CytoTox-ONE™ Homogenous Membrane Integrity [Promega, USA] assay is a rapid fluorescent assay that measures the level of lactate dehydrogenase leaked from damaged membranes, therefore, the amount of fluorescence measured is directly proportional to the amount of lysed/damaged cells. In triplicate, a 1:1 cell sample to CytoTox-ONE™ substrate/buffer mix reagent was added to a 96-well clear plate, shaken for 30 seconds followed by incubation for 10 minutes. A CytoTox-ONE™ stop solution was added to each sample followed by a further 30 second shake on an orbital shaker. […] The fluorescence was then measured with a Synergy HT Multi-Detection Microplate Reader at an excitation wavelength of 530 nm and emission wavelength of 590 nm. FIG. 25 depicts the percentage ATP and Lactate Dehydrogenase (LDH) measured in differentially treated A375 malignant melanoma cancer cells as determined by the Celltitre-Glo™ Luminescent Cell Viability Assay and CytoTox-ONE™ Membrane Integrity Assay respectively. […]
# [3] = system: A375 malignant melanoma cancer cells; assay: AlamarBlue viability and proliferation assay of A375 malignant melanoma cancer cells; format: cell-based, human; conditions: concentration range 1.0 μM-10.0 μM, viability as percentage of 1.0% DMSO vehicle control, quadratic equation
# Method: A375 melanoma cancer cells originate from an immortal cell line from human malignant melanoma from skin (ATCC no CRL-1619).
# A375 malignant melanoma cancer cells were cultured in Dulbecco's Modified Eagle's Medium (DMEM), 13.53 g/L with sodium bicarbonate (NaHCO3), 3.7 g/L supplemented with 10% fetal bovine serum (FBS), and 1% Penicillin/Streptomycin/Fungizone in 75 cm^3 sterile culture flasks. Cells were incubated at 37° C. with 5% CO2 in a humidified atmosphere and were subcultured twice a week. Cells were subcultured every 48 hours and used between Passages 3 and 7. […]
# An AlamarBlue® (Serotec, UK) assay was done to investigate the proliferation capabilities of the differentially treated cells. AlamarBlue® dye (10%) was incubated with trypsinized cells over a 2-hour period before the fluorescence was measured with a Synergy HT Multi-Detection Microplate reader (BioTek, Winooski, Vt.) at wavelengths of 530 nm and (excitation) and 590 nm (emission). […]
# Treatment volumes were 1.0 μL of 1-10 μM range of stock solutions. Fluorescence was measured with 530 nm excitation wavelength and 590 nm emission wavelength. FIG. 21 represents 3 biological repeats measured in triplicate. DMEM reference blanks were averaged and subtracted from all readings and cellular viability values were calculated as percentage of the 1.0% DMSO vehicle control (VC). […]
# [4] = system: A375 malignant melanoma cancer cells; assay: CytoTox-ONE Membrane Integrity Assay (LDH) in A375 cells; format: cell-based, human; conditions: 10 µM
# Method: as §1
# Caspase 3/7 = assay: Caspase-GLO 3/7 assay in A375 cells; format: cell-based, human; conditions: 10 μM, 24 hour treatments
# From the text: Caspase-GLO™ 3/7, 8 and 9 Assays are luminescent assays that measure Caspase activities, which have key effector functions in intrinsic and extrinsic apoptosis, therefore the amount of luminescence measured is proportional to the amount of Caspase activity present. The assays are based on the principle that after Caspase cleavage, a substrate containing the tetrapeptide DEVD sequence binds with Caspase and is released for a luminescent reaction with a thermostable luciferase enzyme. In duplicate, a 1:1 cell sample to Caspase-Glo™ substrate/buffer mix reagent was added into 96-well black plates, then shaken for 30 seconds at room temperature followed by a 1 hour incubation. Whole luminescence was then measured with a Synergy HT Multi-Detection Microplate Reader.
# FIG. 26 depicts Caspase 3/7, 8 and 9 levels in differentially treated A375 malignant melanoma cancer cells as determined by relative luminescence recorded using Caspase-GLO™ assays. Caspase levels represented as a percentage of 1.0% DMSO Vehicle Control (VC) set at 100%. Cells treated with: CDDP=100 μM Cisplatin Positive Apoptotic Control and then 10 μM concentrations of complex (13) and complex (14). […]
Compound,cells killed [1] [%],Caspase induction (Caspase-3/7) [fold increase],ATP levels (cellular viability) [2],IC50 [3] [µM],LDH levels compared to the VC [4],Caspase 3/7 levels compared to the VC (Caspase 3/7)
"N.N.[Cl][Pt][Cl] [Cisplatin, reference compound]",~74,2,,,,
"[Br][Ag]([PH](c1ccccc1)(c1ccccc1)c1ccccc1)([PH](c1ccccc1)(c1ccccc1)c1ccccc1)[PH](c1ccccc1)(c1ccccc1)c1ccccc1 [complex (13), AgBr(PPh3)3]",,,less than 20%,5.16,significant increase,increased
"O=[N+]([O-])[O-].[Ag+].c1ccc(P(c2ccccc2)c2ccccc2)cc1.c1ccc(P(c2ccccc2)c2ccccc2)cc1.c1ccc(P(c2ccccc2)c2ccccc2)cc1 [complex (14), AgNO3(PPh3)3]",,,,6.77,significant increase,increased
